The source of these data is publication PMC7307922 (Journal of Medicinal Chemistry, 2020).

Where a name gives a salt, the structure may show the parent alone. Read-outs that look alike come from different tables or passages of the source. Some results are limits rather than exact numbers.

This assay addresses T1, hFFA3 (Homo sapiens, UniProt O14843).
T1 sequence (O14843 1-346): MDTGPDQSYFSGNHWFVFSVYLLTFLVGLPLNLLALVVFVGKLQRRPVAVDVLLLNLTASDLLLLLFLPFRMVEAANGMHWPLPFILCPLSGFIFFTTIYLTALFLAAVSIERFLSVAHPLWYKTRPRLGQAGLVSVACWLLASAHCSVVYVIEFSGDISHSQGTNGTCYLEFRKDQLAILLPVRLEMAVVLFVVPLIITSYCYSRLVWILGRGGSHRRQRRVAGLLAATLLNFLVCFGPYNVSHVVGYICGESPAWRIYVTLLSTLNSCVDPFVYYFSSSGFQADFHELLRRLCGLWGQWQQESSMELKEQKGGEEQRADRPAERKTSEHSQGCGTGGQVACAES
Kind of assay: cell-based. The following applies: for Emax: HEK293, read-out: cAMP Emax; for cAMP pEC50: compound alone, mean of ≥3 independent experiments ± standard error; for PAM pEC50: cAMP assay in the presence of 1 μM propionate; for allosteric effect on propionate response: cAMP assay together with propionate (56: 30 μM compound; 62, 63: 1 μM propionate). The protocol:
The ligands were initially screened in a human FFA3-dependent [^35S]GTPγS binding assay as this assay reflects receptor-mediated activation of Gi/o proteins and is known to generally correlate well with ligand affinity.[30] Analogues of particular interest were tested further in a cAMP inhibition assay as this is an important downstream effect of Gi-activation. […] It is furthermore performed in whole cells, is more downstream, includes G protein signal amplification, and therefore better reflects a more natural ligand–receptor response.
HEK293 Flp-In T-Rex cells stably transfected with FFA3-eYFP receptors were incubated overnight with doxycycline to induce expression, then harvested, and cryopreserved. On the day of each experiment, cells were thawed and resuspended in stimulation buffer. Assays were carried out using a 384-well plate format with 3000 cells/well using the CisBio cAMP GS dynamic kit as per manufacturer’s protocol. Compounds were tested for the ability to inhibit 0.3 μM forskolin-induced cAMP production after co-incubation for 1 h. Reactions were measured using a PHERAstar FS plate reader (BMGLabtech, Aylesbury, UK).
(cAMP levels reflect the balance of adenylyl cyclase and phosphodiesterase activity.)

Where [1] appears, read: read-out: EC50 (cAMP assay), hFFA3.

`CC1=C(C(=O)Nc2ccccc2C)[C@@H](c2ccco2)C2=C(CCCC2=O)N1` [(S)-1]: the midpoint of the response, the EC50, lay at 2 µM.

Take `CCC1=C(C(=O)Nc2ccccc2C)C(c2ccco2)C2=C(CCCC2=O)N1` (stereo not drawn) [Compound 22, 2-Ethyl-4-(furan-2-yl)-5-oxo-N-(o-tolyl)-1,4,5,6,7,8-hexahydroquinoline-3-carboxamide]: the Emax – broadly, the maximal effect, on the per cent scale that the assay sets – is 95%. The “cAMP pEC50” value (hFFA3) was 5.47 ± 0.04.

Consider `Cc1ccccc1NC(=O)C1=C(c2ccccc2)NC2=C(C(=O)CCC2)C1c1ccco1` (stereo not drawn) [Compound 23, 4-(Furan-2-yl)-5-oxo-2-phenyl-N-(o-tolyl)-1,4,5,6,7,8-hexahydroquinoline-3-carboxamide], for which, for the setting “hFFA3”, the “cAMP pEC50” value is “completely inactive and nr^c”.

`CC1=C(C(=O)Nc2ccccc2C)C(CC(C)C)C(C(=O)c2ccccc2)=C(C)N1` (stereo not drawn) [Compound 25, 5-Benzoyl-4-isobutyl-2,6-dimethyl-N-(o-tolyl)-1,4-dihydropyridine-3-carboxamide]: the EC50 (in general, the midpoint of the concentration-response curve) was above 100 µM and the “PAM pEC50” value is “nr^c”. The “cAMP pEC50” value (hFFA3) is recorded as “nr^c”.

With `COC(=O)C1=C(C)NC(C)=C(C(=O)Nc2ccccc2C)C1CC(C)C` (stereo not drawn) [Compound 26, Methyl 4-isobutyl-2,6-dimethyl-5-(o-tolylcarbamoyl)-1,4-dihydropyridine-3-carboxylate], the EC50 is above 100 µM, the “PAM pEC50” value came out at 6.16 ± 0.12 and the “allosteric effect on propionate response” value is on record as “PAM”. The “cAMP pEC50” value (hFFA3) was “nr^c”.

On to `CC1=C(C#N)C(CC(C)C)C(C(=O)Nc2ccccc2C)=C(C)N1` (stereo not drawn) [Compound 27, 5-Cyano-4-isobutyl-2,6-dimethyl-N-(o-tolyl)-1,4-dihydropyridine-3-carboxamide], for which the “PAM pEC50” value came out at 6.42 ± 0.09. Further, the “cAMP pEC50” value (hFFA3) is 3.99 ± 0.01.

As to `COC(=O)C1=C(C)NC2=C(C(=O)CCC2)C1CC(C)C` (stereo not drawn) [Compound 28, Methyl 4-isobutyl-2-methyl-5-oxo-1,4,5,6,7,8-hexahydroquinoline-3-carboxylate], the “PAM pEC50” value is 6.21 ± 0.10 and the “allosteric effect on propionate response” value is recorded as “PAM properties”. For the same molecule, the “cAMP pEC50” value (hFFA3) is “inactive alone and nr^c”.

For the molecule `CC1=C(C(=O)c2ccccc2)C(CC(C)C)C2=C(CCCC2=O)N1` (stereo not drawn) [Compound 29, 3-Benzoyl-4-isobutyl-2-methyl-4,6,7,8-tetrahydroquinolin-5(1H)-one], the “PAM pEC50” value is listed as above 4 and the “allosteric effect on propionate response” value was “PAM properties”. Moreover, the “cAMP pEC50” value (hFFA3) was “inactive alone and nr^c”.

On to `CCC(C)C1C(C(=O)Nc2ccccc2C)=C(C)NC2=C1C(=O)CCC2` (stereo not drawn) [Compound 30, 4-(sec-Butyl)-2-methyl-5-oxo-N-(o-tolyl)-1,4,5,6,7,8-hexahydroquinoline-3-carboxamide], for which the maximal effect (Emax) is 110% and the “PAM pEC50” value was found to be 6.30 ± 0.04. For the setting “hFFA3”, the “cAMP pEC50” value is 5.00 ± 0.07.

With `CC1=C(C(=O)Nc2ccccc2C)C(C2CCCCC2)C2=C(CCCC2=O)N1` (stereo not drawn) [Compound 31, 4-Cyclohexyl-2-methyl-5-oxo-N-(o-tolyl)-1,4,5,6,7,8-hexahydroquinoline-3-carboxamide], the Emax is 91%. Moreover, the “cAMP pEC50” value (hFFA3) came out at 5.26 ± 0.10.

Take `CC1=C(C(=O)Nc2ccccc2C)C(C2CCCC2)C2=C(CCCC2=O)N1` (stereo not drawn) [Compound 32, 4-Cyclopentyl-2-methyl-5-oxo-N-(o-tolyl)-1,4,5,6,7,8-hexahydroquinoline-3-carboxamide]: the maximum response (Emax) is 102%. For the same molecule, where the note is “cyclopentyl relative to cyclohexyl (31)”, the increase in potency came to 20 fold. Also, the “cAMP pEC50” value (hFFA3) worked out at 6.54 ± 0.02. In addition, under setting [1], the EC50 amounted to 0.288 µM.

As to `CC1=C(C(=O)Nc2ccccc2C)C(C2CC2)C2=C(CCCC2=O)N1` (stereo not drawn) [Compound 33, 4-Cyclopropyl-2-methyl-5-oxo-N-(o-tolyl)-1,4,5,6,7,8-hexahydroquinoline-3-carboxamide], the Emax is 102%. For the same molecule, under “hFFA3”, the “cAMP pEC50” value was 6.22 ± 0.10. Further, the 50% effective concentration (EC50) under setting [1] came out at 0.6 µM.

With `CCC1C(C(=O)Nc2ccccc2C)=C(C)NC2=C1C(=O)CCC2` (stereo not drawn) [Compound 34, 4-Ethyl-2-methyl-5-oxo-N-(o-tolyl)-1,4,5,6,7,8-hexahydroquinoline-3-carboxamide], the Emax is 106% and the “PAM pEC50” value came to 6.45 ± 0.16. In addition, the “cAMP pEC50” value (hFFA3) is given as 5.38 ± 0.13.

Consider `CCCCC1C(C(=O)Nc2ccccc2C)=C(C)NC2=C1C(=O)CCC2` (stereo not drawn) [Compound 36, 2-Methyl-5-oxo-4-butyl-N-(o-tolyl)-1,4,5,6,7,8-hexahydroquinoline-3-carboxamide], for which the “PAM pEC50” value turned out to be 6.58 ± 0.06. Under “hFFA3”, the “cAMP pEC50” value is 5.86 ± 0.03.

In the case of `CCCCCC1C(C(=O)Nc2ccccc2C)=C(C)NC2=C1C(=O)CCC2` (stereo not drawn) [Compound 37, 2-Methyl-5-oxo-4-pentyl-N-(o-tolyl)-1,4,5,6,7,8-hexahydroquinoline-3-carboxamide], the “PAM pEC50” value was 6.40 ± 0.10. In addition, the “cAMP pEC50” value (hFFA3) stood at 5.60 ± 0.17.

On to `CC1=C(C(=O)Nc2ccccc2C)C(CCc2ccccc2)C2=C(CCCC2=O)N1` (stereo not drawn) [Compound 38, 2-Methyl-5-oxo-4-phenethyl-N-(o-tolyl)-1,4,5,6,7,8-hexahydroquinoline-3-carboxamide], for which the concentration for a half-maximal effect (EC50) was above 10 µM, the maximum response (Emax) is 97% and the “PAM pEC50” value is 6.23 ± 0.03. Moreover, the “cAMP pEC50” value (hFFA3) was 4.21 ± 0.27.

With `CC1=C(C(=O)Nc2ccccc2C)C(/C=C/c2ccccc2)C2=C(CCCC2=O)N1` (stereo not drawn) [Compound 39], the half-maximal effective concentration (EC50) is above 10 µM, the Emax is 113% and the “PAM pEC50” value was 6.14 ± 0.07. Where the note is “hFFA3”, the “cAMP pEC50” value is 4.34 ± 0.18.

`CC1=C(C(=O)Nc2cc(Cl)ccc2Cl)C(CCn2cccn2)C2=C(CCCC2=O)N1` (stereo not drawn) [Compound 40, 4-(2-(1H-Pyrazol-1-yl)ethyl)-N-(2,5-dichlorophenyl)-2-methyl-5-oxo-1,4,5,6,7,8-hexahydroquinoline-3-carboxamide]: the EC50 was above 10 µM and the Emax is 96%. Also, the “cAMP pEC50” value (hFFA3) is listed as 4.95 ± 0.08.

`CC1=C(C(=O)Nc2ccccc2C)C(c2cccn2C)C2=C(CCCC2=O)N1` (stereo not drawn) [Compound 41, 2-Methyl-4-(1-methyl-1H-pyrrol-2-yl)-5-oxo-N-(o-tolyl)-1,4,5,6,7,8-hexahydroquinoline-3-carboxamide]: the maximum response (Emax) is 97%. Where the note is “hFFA3”, the “cAMP pEC50” value is recorded as 4.45 ± 0.09.

In the case of `CC1=C(C(=O)Nc2ccccc2C)C(c2ccc(C)o2)C2=C(CCCC2=O)N1` (stereo not drawn) [Compound 42, 2-Methyl-4-(5-methylfuran-2-yl)-5-oxo-N-(o-tolyl)-1,4,5,6,7,8-hexahydroquinoline-3-carboxamide], the Emax is 100%. Where the note is “hFFA3”, the “cAMP pEC50” value turned out to be 5.96 ± 0.03.

As to `CC1=C(C(=O)Nc2ccccc2C)C(c2cc(C)cs2)C2=C(CCCC2=O)N1` (stereo not drawn) [Compound 43, 2-Methyl-4-(4-methylthiophen-2-yl)-5-oxo-N-(o-tolyl)-1,4,5,6,7,8-hexahydroquinoline-3-carboxamide], the maximal effect (Emax) is 102%. Besides, under “hFFA3”, the “cAMP pEC50” value is recorded as 5.86 ± 0.04.

In the case of `CC1=C(C(=O)Nc2ccccc2C)C(c2ccc(Br)o2)C2=C(CCCC2=O)N1` (stereo not drawn) [Compound 44, 4-(5-Bromofuran-2-yl)-2-methyl-5-oxo-N-(o-tolyl)-1,4,5,6,7,8-hexahydroquinoline-3-carboxamide], the Emax was 95%. Where the note is “hFFA3”, the “cAMP pEC50” value amounted to 6.61 ± 0.02.

Regarding `CC1=C(C(=O)Nc2ccccc2C)C(c2cc3ccccc3o2)C2=C(CCCC2=O)N1` (stereo not drawn) [Compound 45, 4-(Benzofuran-2-yl)-2-methyl-5-oxo-N-(o-tolyl)-1,4,5,6,7,8-hexahydroquinoline-3-carboxamide], the Emax was 98%. Where the note is “hFFA3”, the “cAMP pEC50” value came to 6.00 ± 0.02.

With `CC1=C(C(=O)Nc2ccccc2C)C(c2csc3ccccc23)C2=C(CCCC2=O)N1` (stereo not drawn) [Compound 46, 4-(Benzo[b]thiophen-3-yl)-2-methyl-5-oxo-N-(o-tolyl)-1,4,5,6,7,8-hexahydroquinoline-3-carboxamide], the Emax is 95%. In addition, for the setting “hFFA3”, the “cAMP pEC50” value worked out at 5.11 ± 0.04.

Consider `CC1=C(C(=O)Nc2cc(Cl)ccc2Cl)C(CN)C2=C(CCCC2=O)N1` (stereo not drawn) [Compound 52, 4-(Aminomethyl)-N-(2,5-dichlorophenyl)-2-methyl-5-oxo-1,4,5,6,7,8-hexahydroquinoline-3-carboxamide Hydrochloride], for which the “cAMP pEC50” value (hFFA3) was “nr^d”.

`CC1=C(C(=O)Nc2cc(Cl)ccc2Cl)C(CC2CCNCC2)C2=C(CCCC2=O)N1` (stereo not drawn) [Compound 53, N-(2,5-Dichlorophenyl)-2-methyl-5-oxo-4-(piperidin-4-ylmethyl)-1,4,5,6,7,8-hexahydroquinoline-3-carboxamide Hydrochloride]: the “cAMP pEC50” value (hFFA3) is “nr^d”.
